The results in this text go back to the supplement of paper PMC10307832.

Assay in all cases: relative viability (nuclei count vs DMSO), 5 days (fraction); higher = more cells survive
Compound in assay [1]: C1/C(=C\C2=CC=CS2)/C(=O)/C(=C/C3=CC=CS3)/C1 + O=C(CCCCCCC(=O)Nc1ccccc1)NO [Vorinostat] (partner 1 µM)
The gist of the method:
(§1)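 Lung cancer cell lines were pin-tool dosed in 1536-well plates on the day after seeding, with either a lone drug or a fixed anchor-drug dose plus five library-drug doses (not always all listed) in √10 steps. Nuclei were counted on 4× images after 5 days. Relative viability is the ratio of treated-well to vehicle-well nuclei counts, with each value a median of duplicate plates.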

Compound in the assay “TPCA-1 + Bortezomib”: C1=CC(=CC=C1C2=CC(=C(S2)NC(=O)N)C(=O)N)F [TPCA-1] + CC(C)C[C@H](NC(=O)[C@H](Cc1ccccc1)NC(=O)c1cnccn1)B(O)O [Bortezomib] (partner 0.002 µM)
The gist of the method: as §1

Compound in assay [2]: C1/C(=C\C2=CC=CS2)/C(=O)/C(=C/C3=CC=CS3)/C1 + NC(=O)Nc1cc(-c2cccc(F)c2)sc1C(=O)N[C@H]1CCCNC1 [AZD7762] (partner 0.2 µM)
The essentials: as §1

Compound in the assay “TPCA-1 + Alpelisib”: C1=CC(=CC=C1C2=CC(=C(S2)NC(=O)N)C(=O)N)F [TPCA-1] + Cc1nc(NC(=O)N2CCC[C@H]2C(N)=O)sc1-c1ccnc(C(C)(C)C(F)(F)F)c1 [Alpelisib] (partner 2 µM)
The gist of the method:
as §1

For NCI-H3122, the relative viability in assay [1] (first compound 0.2 µM) was found to be 1.08; in assay [1] (first compound 0.6325 µM), 1.08; in assay [1] (first compound 2 µM) it was 0.907; in assay [1] (first compound 6.325 µM), 0.639; in assay [1] (first compound 20 µM), 0.708; with TPCA-1 + Bortezomib (first compound 0.04 µM) it was 1.09. In addition, the relative viability with TPCA-1 + Bortezomib (first compound 0.1265 µM) was 0.983; in the assay with TPCA-1 + Bortezomib (first compound 0.4 µM), 1.08; in the assay with TPCA-1 + Bortezomib (first compound 1.265 µM), 1.01; with TPCA-1 + Bortezomib (first compound 4 µM), 0.975; in assay [2] (first compound 0.2 µM), 0.983; in assay [2] (first compound 0.6325 µM), 0.919. Besides, the relative viability in assay [2] (first compound 2 µM) stood at 0.968; in assay [2] (first compound 6.325 µM) it was 0.956; in assay [2] (first compound 20 µM), 0.967; in the assay with TPCA-1 + Alpelisib (first compound 0.04 µM), 0.846; with TPCA-1 + Alpelisib (first compound 0.1265 µM) it was 0.728; with TPCA-1 + Alpelisib (first compound 0.4 µM), 0.92. In addition, the relative viability in the assay with TPCA-1 + Alpelisib (first compound 1.265 µM) stood at 0.947; with TPCA-1 + Alpelisib (first compound 4 µM), 0.74.

As for PC-3 [JPC-3], the relative viability is 0.985 in assay [1] (first compound 0.6325 µM); 0.954 in assay [1] (first compound 2 µM); 0.74 in assay [1] (first compound 6.325 µM); 1.03 in assay [1] (first compound 20 µM); 0.896 in the assay with TPCA-1 + Bortezomib (first compound 0.04 µM); 0.812 with TPCA-1 + Bortezomib (first compound 0.1265 µM). In addition, the relative viability with TPCA-1 + Bortezomib (first compound 0.4 µM) worked out at 0.833; with TPCA-1 + Bortezomib (first compound 1.265 µM), 0.792; in the assay with TPCA-1 + Bortezomib (first compound 4 µM) it was 0.851; in assay [2] (first compound 0.6325 µM) it was 0.934; in assay [2] (first compound 2 µM) it was 0.889; in assay [2] (first compound 6.325 µM), 0.804. Further, the relative viability was 0.798 in assay [2] (first compound 20 µM); 1.01 with TPCA-1 + Alpelisib (first compound 0.04 µM); 1.02 with TPCA-1 + Alpelisib (first compound 0.1265 µM); 1.04 with TPCA-1 + Alpelisib (first compound 0.4 µM); 0.957 with TPCA-1 + Alpelisib (first compound 1.265 µM); 0.958 with TPCA-1 + Alpelisib (first compound 4 µM).

As to PC-14, the relative viability is 0.855 in assay [1] (first compound 0.2 µM); 0.809 in assay [1] (first compound 0.6325 µM); 0.843 in assay [1] (first compound 2 µM); 0.614 in assay [1] (first compound 6.325 µM); 0.687 in assay [1] (first compound 20 µM); 0.903 with TPCA-1 + Bortezomib (first compound 0.04 µM). Also, the relative viability is 0.787 in the assay with TPCA-1 + Bortezomib (first compound 0.1265 µM); 0.936 in the assay with TPCA-1 + Bortezomib (first compound 0.4 µM); 0.785 with TPCA-1 + Bortezomib (first compound 1.265 µM); 0.574 with TPCA-1 + Bortezomib (first compound 4 µM); 0.433 in assay [2] (first compound 0.2 µM); 0.357 in assay [2] (first compound 0.6325 µM). The relative viability came out at 0.352 in assay [2] (first compound 2 µM); 0.306 in assay [2] (first compound 6.325 µM); 0.432 in assay [2] (first compound 20 µM); 0.952 in the assay with TPCA-1 + Alpelisib (first compound 0.04 µM); 0.879 with TPCA-1 + Alpelisib (first compound 0.1265 µM); 0.965 in the assay with TPCA-1 + Alpelisib (first compound 0.4 µM). The results for the relative viability with TPCA-1 + Alpelisib (first compound 1.265 µM) and with TPCA-1 + Alpelisib (first compound 4 µM) were 0.787 and 0.75, respectively.

Turning to RERF-LC-KJ, the relative viability in assay [1] (first compound 0.2 µM) turned out to be 0.735; in assay [1] (first compound 0.6325 µM), 0.723; in assay [1] (first compound 2 µM), 0.713; in assay [1] (first compound 6.325 µM), 0.645; in assay [1] (first compound 20 µM), 0.675; in the assay with TPCA-1 + Bortezomib (first compound 0.04 µM) it was 1.32. For the same cell line, the relative viability in the assay with TPCA-1 + Bortezomib (first compound 0.1265 µM) was 1.09; in the assay with TPCA-1 + Bortezomib (first compound 0.4 µM), 0.857; with TPCA-1 + Bortezomib (first compound 1.265 µM), 0.916; with TPCA-1 + Bortezomib (first compound 4 µM), 0.998; in assay [2] (first compound 0.2 µM) it was 1.09; in assay [2] (first compound 0.6325 µM) it was 1.04. The relative viability in assay [2] (first compound 2 µM) came out at 1.05; in assay [2] (first compound 6.325 µM), 0.87; in assay [2] (first compound 20 µM), 1.06; with TPCA-1 + Alpelisib (first compound 0.04 µM), 0.974; with TPCA-1 + Alpelisib (first compound 0.1265 µM) it was 0.774; with TPCA-1 + Alpelisib (first compound 0.4 µM) it was 0.773. The relative viability with TPCA-1 + Alpelisib (first compound 1.265 µM) turned out to be 0.733; in the assay with TPCA-1 + Alpelisib (first compound 4 µM), 0.699.
